Like-named read-outs stand apart in the source and are kept apart here.
Key:
Type in all cases: binding
HLA-A*02:01 = HLA-A*02:01 (Homo sapiens, UniProt P04439, D140Y/D185E/D98H/E176V/E277Q/G131W/G231S/I119V/I121R/I166T/I218V/L300P/L318F/N151K/N90K/P208A/P217A/Q86G/Q94H/R138H/R169H/T345S); settings: plate-bound monomer 0.5 µg/ml, duplicated experiments, positive binder >40%
HLA-A*24:02 = HLA-A*24:02 (Homo sapiens, UniProt P04439, D101N/D140Y/D185E/E176V/E190D/F33S/G103R/G107R/I119L/I121M/I306V/K335N/L105A/L180Q/L300P/N151K/N90K/Q86E/Q94H/R106L/R138H/R89G/T104I/T345S/V100E/W191G/Y123F)
HLA-A*30:01 = HLA-A*30:01 (Homo sapiens, UniProt P04439, D140H/D185E/E176W/F33S/G80R/H175R/K168Q/R138E/R41S); settings: duplicated experiments, positive binder >40%
HLA-A*30:02 [1] = target: T1, HLA-A*30:02 (Homo sapiens, UniProt P04439, D101N/D140H/D185E/E176R/F33S/G80R/H175R/K168Q/Q94H/R138E/R41S/V100E); settings: duplicated experiments, positive binder >40%
HLA-A*30:02 [2] = target: T1, HLA-A*30:02
HLA-A*30:02 [3] = target: T1, HLA-A*30:02; settings: time points 0-8 h
HLA-A*68:01 = HLA-A*68:01 (Homo sapiens, UniProt P04439, A269V/D185E/E176V/E277Q/E87N/F33Y/G231S/I121M/I166T/I218V/L180W/L300P/L318F/N151K/P208A/P217A/Q86R/R169H/T345S); settings: duplicated experiments, positive binder >40%
HLA-B*07:02 = HLA-B*07:02 (Homo sapiens, UniProt P01889); settings: percent relative the binding of positive control peptide […]; duplicated experiments; positive binder >40%
HLA-B*58:01 = HLA-B*58:01 (Homo sapiens, UniProt P01889, A329T/C349S/D201E/D98Y/E176V/E187L/E204Q/E69T/G107R/I218V/I90N/K202T/L105A/L119I/N104I/N87E/Q89R/Q94S/R106L/R155S/R180L/R86G/S101N/S121R/S35A/S48A/T118I/V127L/V306I/V36M/Y140S/Y91M); settings: duplicated experiments, positive binder >40%
HLA-C*07:01 = HLA-C*07:01 (Homo sapiens, UniProt P10321, K90N/S123Y); settings: duplicated experiments, positive binder >40%
[4] = percent relative the binding of positive control peptide FLPSDFFPSV
[5] = percent relative the binding of positive control peptide RYLKDQQLL, duplicated experiments, positive binder >40%
[6] = percent relative the binding of positive control peptide KTKDIVNGL
[7] = percent relative the binding of positive control peptide KIQNFRVYY
[8] = peptide titrated 10−4 to 10−9 M
[9] = percent relative the binding of positive control peptide KTGGPIYKR
[10] = percent relative the binding of positive control peptide IAMESIVIW
[11] = percent relative the binding of positive control peptide KYFDEHYEY
[12] = percent relative the binding of positive control peptide […]
[13] = percent relative the binding of positive control peptide […], duplicated experiments, positive binder >40%

| Substance | Bind A*02:01 (HLA-A*02:01; [4]) [%] | Bind A*24:02 (HLA-A*24:02; [5]) [%] | Bind A*30:01 (HLA-A*30:01; [6]) [%] | Bind A*30:02 (HLA-A*30:02 [1]; [7]) [%] | Aff A*30:02 (ED50) (HLA-A*30:02 [2]; [8]) [M] | O-rate A*30:02 (t1/2) (HLA-A*30:02 [3]) [h] | Bind A*68:01 (HLA-A*68:01; [9]) [%] | Bind B*07:02 (HLA-B*07:02) [%] | Bind B*58:01 (HLA-B*58:01; [10]) [%] | Bind C*07:01 (HLA-C*07:01; [11]) [%] | Bind A*02:01 (HLA-A*02:01; [12]) [%] | Bind A*24:02 (HLA-A*24:02; [13]) [%] | Bind A*30:01 (HLA-A*30:01; [12]) [%] | Bind A*30:02 (HLA-A*30:02 [1]; [12]) [%] | Aff A*30:02 (ED50) (HLA-A*30:02 [2]) | Bind A*68:01 (HLA-A*68:01; [12]) [%] | Bind B*58:01 (HLA-B*58:01; [12]) [%] | Bind C*07:01 (HLA-C*07:01; [12]) [%] | Bind A*24:02 (HLA-A*24:02) |
| --- | --- | --- | --- | --- | --- | --- | --- | --- | --- | --- | --- | --- | --- | --- | --- | --- | --- | --- | --- |
| AAAWGGSGS [Rv3875_40-48] | 8 | 0 | 29 | 129 | 5e-09 | 1.1 | 15 | 4 | 8 | 29 | – | – | – | – | – | – | – | – | – |
| AAWGGSGSE [Rv3875_41–49] | 29 | 2 | 18 | 167 | 3e-07 | 1.5 | 29 | 4 | 9 | 29 | – | – | – | – | – | – | – | – | – |
| AGQAMASTE [Rv3875_79–87] | 0 | 0 | 20 | 58 | 5e-09 | 2.3 | 13 | 9 | 11 | 28 | – | – | – | – | – | – | – | – | – |
| ATATELNNA [Rv3875_60–68] | 31 | 0 | 0 | 67 | 3e-07 | 3.8 | 0 | 12 | 0 | 0 | – | – | – | – | – | – | – | – | – |
| AWGGSGSEA [Rv3875_42–50] | 4 | 4 | 16 | 90 | 8e-07 | 1.7 | 11 | 6 | 6 | 29 | – | – | – | – | – | – | – | – | – |
| AYHPQQFIY | – | – | – | – | – | 1.9 | – | 0 | – | – | 13 | 60 | 6 | 111 | 1E -07 M | 5 | 35 | 43 | – |
| AYHSMSSTH [Rv0288_68–76m1] | – | – | – | – | – | 0.5 | – | – | – | – | – | – | – | 70 | 2e-07 M | – | – | – | – |
| CGKAGCQT Y | – | – | – | – | – | 3 | – | 8 | – | – | 44 | 32 | 28 | 138 | 8E -08 M | 60 | 35 | 5 | – |
| DHAGDMAGY [Rv0288_13–21m1] | – | – | – | – | – | 0.3 | – | – | – | – | – | – | – | 141 | 1e-08 M | – | – | – | – |
| GQSSFYSDW | – | – | – | – | – | 3.3 | – | 0 | – | – | 27 | 76 | 0 | 71 | 2e-08 M | 0 | 62 | 0 | – |
| GVQQKWDAT [Rv3875_53–61] | 0 | 0 | 9 | 78 | 3e-08 | 1.3 | 0 | 10 | 6 | 9 | – | – | – | – | – | – | – | – | – |
| IYAGSLSAL | – | – | – | – | – | 0.5 | – | 83 | – | – | 44 | 107 | 0 | 116 | 4E -06 M | 4 | 16 | 0 | – |
| KAADMW GPS | – | – | – | – | – | 0.8 | – | 18 | – | – | 33 | 4 | 1 | 103 | 7E -09 M | 17 | 21 | 34 | – |
| KFQDAYNAA | – | – | – | – | – | 0.7 | – | 0 | – | – | 19 | 0 | 0 | 113 | 8e-06 M | 0 | 0 | 0 | – |
| LQNLARTIS [Rv3875_69–77] | 27 | 26 | 11 | 77 | 1e-08 | 2.1 | 8 | 10 | 20 | 3 | – | – | – | – | – | – | – | – | – |
| LVANNT RLW | – | – | – | – | – | 0.5 | – | 50 | – | – | 21 | 88 | 2 | 68 | 5e-07 M | 38 | 50 | 26 | – |
| LVRAYHSMS [Rv0288_65–73m1] | – | – | – | – | – | 0.9 | – | – | – | – | – | – | 7 | 30 | 1e-08 M | – | – | – | – |
| TMLGHAGDM [Rv0288_10–18m1] | – | – | – | – | – | 0.6 | – | – | – | – | 10 | 4 | – | 99 | 5e-06 M | – | – | – | – |
| W YYQ SG LSI | – | – | – | – | – | – | – | 6 | – | – | 37 | 143 | 18 | 0 | – | 0 | 0 | 13 | – |
| WVYCGNGTP | – | – | – | – | – | – | – | 2 | – | – | 11 | 0 | 0 | 0 | – | 55 | 4 | 16 | – |
| YHPQQFIYA | – | – | – | – | – | – | – | 0 | – | – | 49 | 0 | 3 | 0 | – | 0 | 9 | 15 | – |
| YLLDGLRAQ | – | – | – | – | – | – | – | 0 | – | – | 111 | 0 | 0 | 10 | – | 15 | 0 | 0 | – |
| YNAAGGHNA | – | – | – | – | – | – | – | 0 | – | – | 16 | 0 | 10 | 53 | – | 32 | 46 | 12 | – |
| YSDWYSPAC | – | – | – | – | – | – | – | 0 | – | – | 59 | 0 | 15 | 2 | – | 18 | 85 | 5 | – |
| YYQSGLSIV | – | – | – | – | – | – | – | 0 | – | – | 98 | – | 29 | 37 | – | 5 | 0 | 25 | 130 |
